Legend:
native tau aggregates = assay: Film autoradiography of AD brain tissue sections; format: binding, human
Protocol: Film autoradiography of AD Brain Tissue Sections are performed in a manner consistent with previously published methods (See Zhang, W., et al. F-18 stilbenes as PET imaging agents for detecting beta-amyloid plaques in the brain. Journal of Medicinal Chemistry, 48: 5980-5988, 2005, Zhang, W., et al. F-18 stilbenes as PET imaging agents for amyloid plaque imaging. Nucl Med Biol. 2007 34(1):89-97.)
Postmortem AD diagnosed human brain sections (frontal lobe, 10 um) are covered with 0.5 ml of [^18F]T807 (in 2.5:2.5:95=DMSO:ethanol:1X-phospate buffered saline (PBS), about 20 uCi of [^18F]T807 per slide, and incubated for 60 minutes at room temperature. Then successive washing cycles are employed with 2 minutes of 1× PBS, 2 minutes of 30% ethanol/1× PBS, 2 minutes of 70% ethanol/1× PBS, and 2 minutes 1× PBS, to remove any unbound tracer. After drying under a fume hood, the sections are put on a FujiFilm radio-sensor cassette and exposed over night. The autoradiography signal is recorded in the radio-sensor sheet and is read/visualized with the FujiFilm Bio-Imaging System FLA-7000. Autoradiographic visualization of tau is observed in gray matter of postmortem AD brain tissue. See FIG. 2 which illustrates [^18F]T807 labeling of tau in post-mortem frontal lobe sections (10 um) of tau-positive human brain tissue from patients with AD, approximately 20 uCi of [^18F]T807 per slide. Strong autoradiography signal of [^18F]T807 is observed on the grey matter (GM) region, and the presence of tau in these regions are confirmed by tau-immunostaining. The non-specific or background [^18F]T807 signal is shown in the white matter region (WM) and is low.

PHF-tau = conditions: cited from Alzheimer's & Dementia 2013; cited from earlier work
[1] = Solubility of precursor in DMSO; format: physicochemical; conditions: no sonication or heating required
Description: The solubility of the precursor compound affects the ability of the compound to get into solution so that a reaction to produce [^18F]T807 can effectively occur.

Compound: Fc1ccc(-c2ccc3c(c2)[nH]c2ccncc23)cn1 [Example T807, 7-(6-fluoro-3-pyridyl)-5H-pyrido[4,3-b]indole, reference compound]
- blocking of the [18F]T807 autoradiography signal (specificity for native tau aggregates) (native tau aggregates; 1 uM of cold T807, human AD brain sections): blocking effect

Compound: [18F]c1ccc(-c2ccc3c(c2)[nH]c2ccncc23)cn1 [[^18F]T807, 7-(6-[^18F]fluoro-3-pyridyl)-5H-pyrido[4,3-b]indole]
- affinity and selectivity to PHF-tau (PHF-tau): high
- non-specific or background signal in the white matter region (WM) (native tau aggregates; post-mortem frontal lobe sections (10 um) of tau-positive human AD brain, about 20 uCi per slide): low
- autoradiography signal on the grey matter (GM) region (native tau aggregates; post-mortem frontal lobe sections (10 um) of tau-positive human AD brain, about 20 uCi per slide, 60 minutes at room temperature): Strong

Compound: CC(C)(C)OC(=O)n1c2ccncc2c2ccc(-c3ccc([N+](C)(C)C)nc3)cc21.Cc1ccc(S(=O)(=O)[O-])cc1 [formula Ia, 5-(5-(tert-butoxycarbonyl)-5H-pyrido[4,3-b]indol-7-yl)-N,N,N-trimethylpyridin-2-aminium 4-methylbenzenesulfonate]
- solubility in DMSO [1]: readily soluble

— patent publication US20160228586A1, “Compounds and Their Use for Preparation of Tau Imaging Agents and Tau Imaging Formulations” (ELI LILLY AND COMPANY, priority 2013, published 2016)
